Measured values published in patent EP2842558A1, “CGRP RESP[…]” (Kao Corporation, priority 2012, dated 2013).

System: Normal human coronary artery smooth muscle cells (HCASMC)
Test: Measurement of responsiveness to CGRP (intracellular cAMP EIA after 0.5 nM CGRP stimulation)
Assay type: cell-based
Settings: lignan at predetermined concentrations during 60 min PDI infiltration and 15 min 0.5 nM CGRP stimulation, control = 0.5 nM CGRP only (100% = 1189.3 fmol/well), Dunnett's test, N = 3, Fig. 1
Experimental: Normal human coronary artery smooth muscle cells (HCASMC; Kurabo Industries, Ltd., cell lot #01272) were cultured in a growth medium (product obtained by adding 25 ml of FBS, 0.5 ml of hEGF, 0.5 ml of hFGF-B, 0.5 ml of insulin and 0.5 ml of an antibacterial agent to 500 ml of basal medium HuMedia-SB2; Kurabo Industries, Ltd). 0.025% Trypsin/0.01% EDTA was used for the passage. […]
The cells were washed twice with a basal medium (HuMedia-SB2; Kurabo Industries, Ltd.) containing phosphodiesterase inhibitors (PDI), IBMX (3-isobutyl-1-methylxanthine, 500 µM, Sigma-Aldrich Co.), Ro-20-1724 (100 µM; Wako Pure Chemical Industries, Ltd.), and a lignan compound shown below at a predetermined concentration. […] Termination of the reaction was carried out by adding a lysis buffer attached to a cAMP analysis EIA kit (cAMP EIA (non-acetylation); GE Healthcare Biosciences Corp.) to the cells, and the intracellular cAMP concentration ([cAMP]i) was measured according to the method described in the manual. […]
HCASMC (Kurabo Industries, Ltd., cell lot #01272) was prepared under the same conditions as those used in Example 1. […] Thereafter, the cellular responsiveness to CGRP was measured by the same method as that used in Example 1.

Row | Compound | cellular responsiveness to CGRP (Improve Index, percentage of [cAMP]i)
1 | COc1cc([C@@H]2c3cc4c(c(OC)c3C[C@H]3COC(=O)[C@@H]32)OCO4)cc(OC)c1OC [TD-1] | significantly promoted the cellular responsiveness to CGRP in a concentration-dependent manner
2 | COc1cc([C@@H]2c3cc4c(cc3C[C@H]3COC(=O)[C@@H]32)OCO4)cc(OC)c1OC [TD-2] | significantly promoted the cellular responsiveness to CGRP in a concentration-dependent manner
